Values of other authors in patent publication US20080318218A1, “Compositions and Methods for Inferring an Adverse Effect in Response to a Drug Treatment” (DNAPrint Genomics, Inc., priority 2004, published 2008).
Each block holds one molecule with its values, some of them ahead of it.

Tests used:
[1] = human, in vivo
[2] = clinical trials
[3] = test system: NO synthase; details: ACE inhibitor-associated cough; P<0.01; not with placebo

- patients exhibiting persistent and dose-dependent indications of hepatic stress (elevation in serum transaminase SGOT, ALTGPT) [1]: Approximately 0.7%
SMILES: CC(C)c1c(C(=O)Nc2ccccc2)c(-c2ccccc2)c(-c2ccc(F)cc2)n1CC[C@@H](O)C[C@@H](O)CC(=O)O [Atorvastatin]

- patients experiencing muscle discomfort and/or creatine kinase elevations in response to treatment [2]: about 1%
SMILES: COCc1c(C(C)C)nc(C(C)C)c(/C=C/[C@@H](O)C[C@@H](O)CC(=O)O)c1-c1ccc(F)cc1 [Baycol, Cerivastatin]

SMILES: [Fe] [iron]
- cough scores [3]: significant reduction
